Reference: patent US8501977B2, “Platinum complex and pharmaceutical composition containing the same” (Unitech Co., Ltd., priority 2008, dated 2013)
“Also recorded” adds a separate entry of the source.

Legend:
[1] = tested on: A549 (human lung cancer cell); experiment: MTS cell proliferation test, A549 (Embodiment 8); format: cell-based
Method: (§1) Respectively, the S medicine test solution was prepared by dissolving the ((S,S,S) cis,cis-spiro[4,4]nonane-1,6-diamine)oxalatoplatinum(II) complex (compound 2; hereinafter, it is described as S medicine) into the dimethylsulfoxide (DMSO) with the concentration of 10 mg/ml and the R medicine test solution was prepared by dissolving the ((R,R,R)cis,cis-spiro[4,4]nonane-1,6-diamine) oxalatoplatinum(II) complex (compound 3; hereinafter, it is described as R medicine) into the dimethylsulfoxide (DMSO) with the concentration of 10 mg/ml.
(§2) The test was performed by using A549 (human lung cancer cell), LU65A (human lung cancer cell), RERF-LC-MA (human lung cancer cell), LU99 (human lung cancer cell), H460 (human lung cancer cell), HCT116 (human colon cancer cell), HT-29 (human colon cancer cell), MKN-45 (human gastric cancer cell), MKN-1 (human gastric cancer cell), U937 (human lymphoma cell), KP-1N (human pancreas cancer cell) and B2452 (human mesotheliama cell) as the cancer cell.
(§3) These cells were suspended in the each culture medium that the serum of 10% was added, and were dispensed in 96-well plate. And then, these were cultured in 5% CO2 at 37 degrees centigrade during a night. Next day, the S medicine test solution and the R medicine test solution were prepared in the culture medium to the various concentrations (5, 10, 20 μg/ml), and were dispensed into the plates that the cells were set preliminarily. And further, these were cultured in 5% CO2 at 37 degrees centigrade for three days.
(§4) The cell proliferation after the medicine addition was measured on the 3rd day from the 1st day after the medicine addition by the MTS method (kit for cell proliferation test manufactured by Promega Company).
(§5) The inhibition rate (%) of the cell proliferation was obtained from the measured MTS value by the following formula. Inhibition rate(%)=(1-MTS value of medicine addition group/MTS value of medicine non-addition group)×100
(§6) Because the value which was obtained by the above-mentioned formula represents the inhibition rate of the cell proliferation, the higher the numerical value is, the higher the medicine effect is. It is desired that the one whose value is 50% or more has the medicine effect.

[2] = tested on: MKN-1 (human gastric cancer cell); experiment: MTS cell proliferation test, MKN-1 (Embodiment 8); format: cell-based
Method: as §1, §2, §3, §4, §5, §6

[3] = tested on: LU65A (human lung cancer cell); experiment: MTS cell proliferation test, LU65A (Embodiment 8); format: cell-based
Method: as §1, §2, §3, §4, §5, §6

[4] = tested on: HCT116 (human colon cancer cell); experiment: MTS cell proliferation test, HCT116 (Embodiment 8); format: cell-based
Method: as §1, §2, §3, §4, §5, §6

[5] = tested on: KP-1N (human pancreas cancer cell); experiment: MTS cell proliferation test, KP-1N (Embodiment 8); format: cell-based
Method: as §1, §2, §3, §4, §5, §6

[6] = tested on: H460 (human lung cancer cell); experiment: MTS cell proliferation test, H460 (Embodiment 8); format: cell-based
Method: as §1, §2, §3, §4, §5, §6

[7] = tested on: HT-29 (human colon cancer cell); experiment: MTS cell proliferation test, HT-29 (Embodiment 8); format: cell-based
Method: as §1, §2, §3, §4, §5, §6

tumor cells = experiment: MTS cell proliferation test, all cancer cells of Embodiment 8; format: cell-based, human; details: summary of Table 2 in words
Method: as §1
as §2, with “cell. […]” for “cell.”
as §4
The inhibition rate (%) of the cell proliferation was obtained from the measured MTS value by the following formula. […]

[8] = tested on: LU99 (human lung cancer cell); experiment: MTS cell proliferation test, LU99 (Embodiment 8); format: cell-based
Method: as §1, §2, §3, §4, §5, §6

[9] = tested on: RERF-LC-MA (human lung cancer cell); experiment: MTS cell proliferation test, RERF-LC-MA (Embodiment 8); format: cell-based
Method: as §1, §2, §3, §4, §5, §6

[10] = tested on: H2452 cell (human mesothelicana cell); experiment: MTS cell proliferation test, H2452 (Embodiment 8); format: cell-based
Method: as §1, §2, §3, §4, §5, §6

[11] = tested on: U937 (human lymphoma cell); experiment: MTS cell proliferation test, U937 (Embodiment 8); format: cell-based
Method: as §1, §2, §3, §4, §5, §6

[12] = tested on: MKN-45 (human gastric cancer cell); experiment: MTS cell proliferation test, MKN-45 (Embodiment 8); format: cell-based
Method: as §1, §2, §3, §4, §5, §6

**Q.** Which “Inhibition rate of cell proliferation after 3 days from medicine addition (%)” value (“Inhibition rate of cell proliferation … (%)” for short) ([1]; A549, 5 μg/ml) does the source give for NC1CCCC12CCCC2N.O=C1[O][Pt][O]C1=O [R medicine, ((R,R,R)cis,cis-spiro[4,4]nonane-1,6-diamine) oxalatoplatinum(II) complex] here?
**A.** The value was “Δ (Δ: 26~50%)”.

**Q.** What about the “Inhibition rate of cell proliferation … (%)” value ([1]; A549, 10 μg/ml) of the same molecule?
**A.** The value was “◯ (◯: 51~75%)”.

**Q.** What about the “Inhibition rate of cell proliferation … (%)” value ([1]; A549, 20 μg/ml) of the same molecule?
**A.** Its value is “◯ (◯: 51~75%)”.

**Q.** What about the “Inhibition rate of cell proliferation … (%)” value ([2]; MKN-1, 5 μg/ml) of the same molecule?
**A.** Its value is “⊚ (⊚: 76~100%)”.

**Q.** What about the “Inhibition rate of cell proliferation … (%)” value ([2]; MKN-1, 10 μg/ml) of the same molecule?
**A.** Its value is “⊚ (⊚: 76~100%)”.

**Q.** What about the “Inhibition rate of cell proliferation … (%)” value ([2]; MKN-1, 20 μg/ml) of the same molecule?
**A.** The value was “⊚ (⊚: 76~100%)”.

**Q.** What about the “Inhibition rate of cell proliferation … (%)” value ([3]; 5 μg/ml) of the same molecule?
**A.** Its value is “⊚ (⊚: 76~100%)”.

**Q.** And the “Inhibition rate of cell proliferation … (%)” value ([3]; 10 μg/ml)?
**A.** The value was “⊚ (⊚: 76~100%)”.

**Q.** And the “Inhibition rate of cell proliferation … (%)” value ([3]; 20 μg/ml)?
**A.** Its value is “⊚ (⊚: 76~100%)”.

**Q.** What about the “Inhibition rate of cell proliferation … (%)” value ([4]; HCT116, 5 μg/ml) of the same molecule?
**A.** The value was “◯ (◯: 51~75%)”.

**Q.** And the “Inhibition rate of cell proliferation … (%)” value ([4]; HCT116, 10 μg/ml)?
**A.** The value was “⊚ (⊚: 76~100%)”.

**Q.** What about the “Inhibition rate of cell proliferation … (%)” value ([4]; HCT116, 20 μg/ml) of the same molecule?
**A.** The value was “⊚ (⊚: 76~100%)”.

**Q.** What about the “Inhibition rate of cell proliferation … (%)” value ([5]; 5 μg/ml) of the same molecule?
**A.** The value was “◯ (◯: 51~75%)”.

**Q.** What about the “Inhibition rate of cell proliferation … (%)” value ([5]; 10 μg/ml) of the same molecule?
**A.** The value was “⊚ (⊚: 76~100%)”.

**Q.** And the “Inhibition rate of cell proliferation … (%)” value ([5]; 20 μg/ml)?
**A.** Its value is “⊚ (⊚: 76~100%)”.

**Q.** And the “Inhibition rate of cell proliferation … (%)” value ([6]; H460, 5 μg/ml)?
**A.** Its value is “◯ (◯: 51~75%)”.

**Q.** What about the “Inhibition rate of cell proliferation … (%)” value ([6]; H460, 10 μg/ml) of the same molecule?
**A.** The value was “⊚ (⊚: 76~100%)”.

**Q.** And the “Inhibition rate of cell proliferation … (%)” value ([6]; H460, 20 μg/ml)?
**A.** The value was “⊚ (⊚: 76~100%)”.

**Q.** What about the “Inhibition rate of cell proliferation … (%)” value ([7]; HT-29, 5 μg/ml) of the same molecule?
**A.** The value was “◯ (◯: 51~75%)”.

**Q.** What about the “Inhibition rate of cell proliferation … (%)” value ([7]; HT-29, 10 μg/ml) of the same molecule?
**A.** Its value is “◯ (◯: 51~75%)”.

**Q.** And the “Inhibition rate of cell proliferation … (%)” value ([7]; HT-29, 20 μg/ml)?
**A.** Its value is “⊚ (⊚: 76~100%)”.

**Q.** What about the “medicine effect for the many tumor cells” value (tumor cells) of the same molecule?
**A.** Its value is “high medicine effect compared with the oxaliplatin; also recorded: higher in the effect”.

**Q.** What about the “Inhibition rate of cell proliferation … (%)” value ([8]; LU99, 5 μg/ml) of the same molecule?
**A.** Its value is “⊚ (⊚: 76~100%)”.

**Q.** And the “Inhibition rate of cell proliferation … (%)” value ([8]; LU99, 10 μg/ml)?
**A.** Its value is “⊚ (⊚: 76~100%)”.

**Q.** What about the “Inhibition rate of cell proliferation … (%)” value ([8]; LU99, 20 μg/ml) of the same molecule?
**A.** Its value is “⊚ (⊚: 76~100%)”.

**Q.** And the “Inhibition rate of cell proliferation … (%)” value ([9]; 5 μg/ml)?
**A.** Its value is “Δ (Δ: 26~50%)”.

**Q.** And the “Inhibition rate of cell proliferation … (%)” value ([9]; 10 μg/ml)?
**A.** Its value is “◯ (◯: 51~75%)”.

**Q.** What about the “Inhibition rate of cell proliferation … (%)” value ([9]; 20 μg/ml) of the same molecule?
**A.** Its value is “◯ (◯: 51~75%)”.

**Q.** What about the “Inhibition rate of cell proliferation … (%)” value ([10]; H2452, 5 μg/ml) of the same molecule?
**A.** Its value is “Δ (Δ: 26~50%)”.

**Q.** And the “Inhibition rate of cell proliferation … (%)” value ([10]; H2452, 10 μg/ml)?
**A.** The value was “◯ (◯: 51~75%)”.

**Q.** And the “Inhibition rate of cell proliferation … (%)” value ([10]; H2452, 20 μg/ml)?
**A.** Its value is “◯ (◯: 51~75%)”.

**Q.** And the “Inhibition rate of cell proliferation … (%)” value ([11]; U937, 5 μg/ml)?
**A.** The value was “⊚ (⊚: 76~100%)”.

**Q.** What about the “Inhibition rate of cell proliferation … (%)” value ([11]; U937, 10 μg/ml) of the same molecule?
**A.** Its value is “⊚ (⊚: 76~100%)”.

**Q.** What about the “Inhibition rate of cell proliferation … (%)” value ([11]; U937, 20 μg/ml) of the same molecule?
**A.** Its value is “⊚ (⊚: 76~100%)”.

**Q.** And the “Inhibition rate of cell proliferation … (%)” value ([12]; MKN-45, 5 μg/ml)?
**A.** Its value is “⊚ (⊚: 76~100%)”.

**Q.** And the “Inhibition rate of cell proliferation … (%)” value ([12]; MKN-45, 10 μg/ml)?
**A.** The value was “⊚ (⊚: 76~100%)”.

**Q.** And the “Inhibition rate of cell proliferation … (%)” value ([12]; MKN-45, 20 μg/ml)?
**A.** The value was “⊚ (⊚: 76~100%)”.
